Source: the supplement of paper PMC4862054

Tests used:
Conditions in all cases: incubation time: 72 h
HCC1937 [1] = assay: normalised viability (% of control), CellTiter-Blue; higher = more viable cells (about 100 = DMSO control)
Method in brief: (§1)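 Breast cancer cell lines in 20 µl suspension were seeded onto 384-well plates pre-loaded with compound dissolved in 5 µl medium, then incubated 72 h. CellTiter-Blue reagent (2.5 µl) was added for 2 h at 37 °C and fluorescence read at 560/590 nm. Each plate was normalised to vehicle (100) and a positive kill control (0), with Z'-factor quality control. The value is normalised viability at one listed concentration of the series.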

HCC1143 [2] = assay: as above
Method in brief: as §1

MFM-223 = assay: as above
Method in brief: as §1

MDA-MB-436 = assay: as above
Method in brief: as §1

CAL-148 [3] = assay: as above
Method in brief: as §1

SK-BR-3 = assay: as above
Method in brief: as §1

HCC1599 [4] = assay: as above
Method in brief: as §1

DU-4475 [5] = assay: as above
Method in brief: as §1

BT-474 [6] = assay: as above
Method in brief: as §1

CAL-51 [7] = assay: as above
Method in brief: as §1

HDQ-P1 = assay: as above
Method in brief: as §1

CAL-120 [8] = assay: as above
Method in brief: as §1

Hs578T = assay: as above
Method in brief: as §1

MDA-MB-231 [9] = assay: as above
Method in brief: as §1

HCC1937 [10] = assay: drug sensitivity score (DSS), CellTiter-Blue viability (DSS (AUC-based score)); higher = stronger viability inhibition; extreme values may be limits of the assay
Experimental: (§2)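 DSRT with the CellTiter-Blue (resazurin reduction) viability readout, fluorescence 560/590 nm, 72 h incubation. Plates were normalised to DMSO and benzethonium chloride controls. DSS is computed from the area under the fitted dose-response curve (5 or 9 concentrations).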

HCC1143 [11] = assay: as above
Experimental: as §2

MDA-MB-453 = assay: as above
Experimental: as §2

CAL-148 [12] = assay: as above
Experimental: as §2

HCC1599 [13] = assay: as above
Experimental: as §2

DU-4475 [14] = assay: as above
Experimental: as §2

BT-474 [15] = assay: as above
Experimental: as §2

CAL-51 [16] = assay: as above
Experimental: as §2

CAL-120 [17] = assay: as above
Experimental: as §2

MDA-MB-231 [18] = assay: as above
Experimental: as §2

N#Cc1ccc(COC[C@H]2O[C@@H](n3c(NCc4ccc(Cl)c(Cl)c4)nc4c(N)ncnc43)[C@H](O)[C@@H]2O)cc1
normalised viability [%]
Conditions | 3 nM | 10 nM | 30 nM | 100 nM | 1000 nM | 10000 nM
BT-474 [6] | – | 135 | – | – | 95 | 89.5
CAL-51 [7] | 118 | – | 110 | 110 | – | –
CAL-120 [8] | – | 103 | – | – | 110 | 62.4
CAL-148 [3] | 101 | – | 105 | 99.3 | – | –
DU-4475 [5] | 97.8 | – | 88.7 | 113 | – | –
HCC1143 [2] | – | 90.1 | – | – | 87.4 | 60.8
HCC1599 [4] | – | 97.3 | – | – | 65.6 | 22
HCC1937 [1] | – | 135 | – | – | 78.5 | 71.8
HDQ-P1 | 115 | – | 104 | 105 | – | –
Hs578T | – | 104 | – | – | 99.3 | 73.8
MDA-MB-231 [9] | – | 128 | – | – | 77.3 | 57.2
MDA-MB-436 | – | 95.2 | – | – | 84.8 | 50.9
MFM-223 | – | 93 | – | – | 101 | 93.6
SK-BR-3 | – | 115 | – | – | 102 | 37.3

Conditions | drug sensitivity score
BT-474 [15] | 0
CAL-51 [16] | 0
CAL-120 [17] | 0
CAL-148 [12] | 0
DU-4475 [14] | 1.33
HCC1143 [11] | 0
HCC1599 [13] | 8.13
HCC1937 [10] | 3.59
MDA-MB-231 [18] | 4.35
MDA-MB-453 | 0

Cc1[nH]c2ccccc2c1CCNCc1ccc(/C=C/C(=O)NO)cc1 [Panobinostat]
normalised viability [%]
Conditions | 0.3 nM | 1 nM | 3 nM | 10 nM | 100 nM | 1000 nM
BT-474 [6] | – | 118 | – | – | 4.44 | 9.36
CAL-51 [7] | 113 | – | 111 | 97.2 | – | –
CAL-120 [8] | – | 109 | – | – | 9.65 | 3.59
CAL-148 [3] | 96.5 | – | 104 | 59.4 | – | –
DU-4475 [5] | 112 | – | 92.4 | 81.6 | – | –
HCC1143 [2] | – | 102 | – | – | 20.7 | 12.2
HCC1599 [4] | – | 99.7 | – | – | 23 | 16.3
HCC1937 [1] | – | 110 | – | – | 26.2 | 15.1
HDQ-P1 | 120 | – | 115 | 93.1 | – | –
Hs578T | – | 152 | – | – | 13.8 | 5.54
MDA-MB-231 [9] | – | 120 | – | – | 13.3 | 7.26
MDA-MB-436 | – | 110 | – | – | 59.1 | 17
MFM-223 | – | 102 | – | – | 20.2 | 14.8
SK-BR-3 | – | 96.9 | – | – | 5.41 | 3.54

Conditions | drug sensitivity score
BT-474 [15] | 17.5
CAL-51 [16] | 15
CAL-120 [17] | 22.2
CAL-148 [12] | 22.1
DU-4475 [14] | 20
HCC1143 [11] | 16.3
HCC1599 [13] | 16.1
HCC1937 [10] | 17.9
MDA-MB-231 [18] | 16.5
MDA-MB-453 | 27.8

O=C(Nc1cccnc1)N1CCC(Cc2cccc(Oc3ccc(C(F)(F)F)cn3)c2)CC1 [PF-3845]
normalised viability [%]
Conditions | 3 nM | 10 nM | 30 nM | 100 nM | 1000 nM | 10000 nM
BT-474 [6] | – | 128 | – | – | 111 | 40.5
CAL-51 [7] | 109 | – | 98.1 | 103 | – | –
CAL-120 [8] | – | 99.1 | – | – | 105 | 120
CAL-148 [3] | 91 | – | 85.3 | 97.9 | – | –
DU-4475 [5] | 90.2 | – | 90.7 | 87.6 | – | –
HCC1143 [2] | – | 84.3 | – | – | 88.5 | 89.5
HCC1599 [4] | – | 95.1 | – | – | 114 | 76.6
HCC1937 [1] | – | 122 | – | – | 108 | 97.2
HDQ-P1 | 129 | – | 115 | 113 | – | –
Hs578T | – | 116 | – | – | 94.3 | 79.1
MDA-MB-231 [9] | – | 106 | – | – | 115 | 127
MDA-MB-436 | – | 98.1 | – | – | 116 | 101
MFM-223 | – | 91.8 | – | – | 95.5 | 74.1
SK-BR-3 | – | 111 | – | – | 106 | 116

Conditions | drug sensitivity score
BT-474 [15] | 1.39
CAL-51 [16] | 0.908
CAL-120 [17] | 0
CAL-148 [12] | 0
DU-4475 [14] | 0
HCC1143 [11] | 0
HCC1599 [13] | 0
HCC1937 [10] | 0
MDA-MB-231 [18] | 0
MDA-MB-453 | 4.35

S=P(N1CC1)(N1CC1)N1CC1 [Thio-TEPA]
normalised viability [%]
Conditions | 30 nM | 100 nM | 300 nM | 1000 nM | 10000 nM | 100000 nM
BT-474 [6] | – | 119 | – | – | 114 | 115
CAL-51 [7] | 95.4 | – | 97.1 | 97.4 | – | –
CAL-120 [8] | – | 90.7 | – | – | 86.8 | 93.7
CAL-148 [3] | 93.8 | – | 92.7 | 105 | – | –
DU-4475 [5] | 97.2 | – | 98.7 | 91.8 | – | –
HCC1143 [2] | – | 109 | – | – | 95.9 | 81.7
HCC1599 [4] | – | 97.8 | – | – | 82.7 | 94.7
HCC1937 [1] | – | 102 | – | – | 93.4 | 83.6
HDQ-P1 | 111 | – | 115 | 104 | – | –
Hs578T | – | 115 | – | – | 95.6 | 109
MDA-MB-231 [9] | – | 103 | – | – | 83.2 | 64.4
MDA-MB-436 | – | 110 | – | – | 87.7 | 123
MFM-223 | – | 105 | – | – | 106 | 104
SK-BR-3 | – | 102 | – | – | 99.3 | 97.1

Conditions | drug sensitivity score
BT-474 [15] | 0
CAL-51 [16] | 0
CAL-120 [17] | 0
CAL-148 [12] | 0
DU-4475 [14] | 0
HCC1143 [11] | 0
HCC1599 [13] | 0
HCC1937 [10] | 0
MDA-MB-231 [18] | 3.37
MDA-MB-453 | 0

NC(=O)c1ccc(I)c([N+](=O)[O-])c1 [Iniparib]
normalised viability [%]
Conditions | 3 nM | 10 nM | 30 nM | 100 nM | 1000 nM | 10000 nM
BT-474 [6] | – | 95.2 | – | – | 106 | 96.6
CAL-51 [7] | 92.6 | – | 92.9 | 96.4 | – | –
CAL-120 [8] | – | 87.3 | – | – | 98.6 | 72.7
CAL-148 [3] | 85.6 | – | 92.8 | 90.2 | – | –
DU-4475 [5] | 84.1 | – | 73.9 | 98.8 | – | –
HCC1143 [2] | – | 93.6 | – | – | 102 | 91.3
HCC1599 [4] | – | 88.3 | – | – | 88.3 | 89.8
HCC1937 [1] | – | 86 | – | – | 97.4 | 97.6
HDQ-P1 | 99.3 | – | 104 | 111 | – | –
Hs578T | – | 115 | – | – | 108 | 109
MDA-MB-231 [9] | – | 88.1 | – | – | 89.6 | 111
MDA-MB-436 | – | 104 | – | – | 116 | 109
MFM-223 | – | 93.9 | – | – | 99 | 95.4
SK-BR-3 | – | 89.7 | – | – | 104 | 91.5

Conditions | drug sensitivity score
BT-474 [15] | 0
CAL-51 [16] | 0
CAL-120 [17] | 1.19
CAL-148 [12] | 0
DU-4475 [14] | 0
HCC1143 [11] | 0
HCC1599 [13] | 0
HCC1937 [10] | 0
MDA-MB-231 [18] | 0
MDA-MB-453 | 0
